From patent US20230151432A1, “KIF18A INHIBITORS FOR TREATMENT OF NEOPLASTIC DISEASES” (AMGEN INC., priority 2020, published 2023)
Where two headings read alike, the source gives them in different places.

Legend:
[1] = system: MDA-MB-157 TNBC cells; experiment: Imaging-based Centrosome Count Assay (CCA); type: cell-based; conditions: Homo sapiens, 24 hours of treatment
Description: To analyze the effects of a KIF18A inhibitor on the mitotic phenotype of cancer cells, an imaging-based Centrosome Count Assay (CCA) carried out using a KIF18A inhibitor was carried out. In preparation for plating, MDA-MB-157 TNBC cells were resuspended seven times through a 10 mL syringe with 18-G needle to create a single-cell suspension. Cells were seeded at a density of 30 000 cells per well using the BRAVO Automated Liquid Handling Platform (Agilent Technologies, Santa Clara, Calif.) into Corning 96-well Flat Clear Bottom Black Polystyrene plate (Corning, N.Y.) in 100 μL of complete media and grown for 24 hours. […] Imaging data was acquired on Cellomics ArrayScan VTI HCS Reader (SN03090745F, ThermoFisher Scientific) using the SpotDetector.V4 Assay protocol (Ver 6.6.0 (Build 8153) with a 20×objective, experiment #1 collected 100-fields per well; experiment #2 collected 67-fields per well). […] The percentage of mitotic objects with >2 pericentrin spots (proxy for centrosome number) was determined for each well. […] This represents the total valid p-Histone H3 positive mitotic object count based on the set fluorescence intensity threshold using alexa-647 (channel 3). • (3) % Selected Object pHH3. […]

[2] = system: OVCAR-8 NCI/ADR-RES cells; experiment: Nuclear count assay in multidrug resistant cells, with or without P-gp inhibitor; type: cell-based, human; conditions: OVCAR-8 NCI-ADR RES subline, Count POC (FIG. 3E)
Description: Compound was added to the cells with a final volume of 200 μL in complete media containing 0.5% DMSO.
The plates were sealed and incubated for 1 hour at room temperature in the dark. Cells were stored at 4° C. in the dark until data acquisition. […] The Total Valid Object Count was represented as a Count POC (Percentage of DMSO Control) using the following formula:
Briefly, OVCAR-8 cells were seeded in duplicate in a Corning 96-well Flat Clear Bottom Black Polystyrene plates (Corning, N.Y.) in 100 μL of appropriate complete media at the appropriate density and grown for 24 hours. […] After 4 days (96 hours) of treatment, the cells were fixed by removing 100 μL of complete media from each well and replacing it with 100 μL of 2×formaldehyde (final 4%) and incubating the plates for 15 minutes at room temperature. […] The plates were sealed and incubated for 1 hour at room temperature in the dark. Cells were stored at 4° C. in the dark until data acquisition. […] The Total Valid Object Count was represented as a Count POC (Percentage of DMSO Control) using the following formula:
Count POC=(Total Valid Object Count in treated well)[…](Total Valid Object Count in DMSO treated wells)×100
Compound concentration and Count POC values were plotted using GraphPad Prism software (V7.0.4) and curve-fitting was performed with 4-parameter equation (variable slope). The concentration-response curves and standard deviation represent two independent experiments run in duplicate.

[3] = system: five KIF18A inhibitor-sensitive cancer cell lines; experiment: 6-day cell growth assay with re-plating in drug-free media; type: cell-based, human
Description: To better understand the durability of response after KIF18A inhibitor treatment, all five KIF18A inhibitor-sensitive cancer cell lines were treated with DMSO or Compound C11 in a 6-day cell growth assay, where the surviving cells were washed, collected, counted, and re-plated in drug-free growth media and cultured for additional 7 to 9 days. MCF-7 cells treated with a CDK 4/6 inhibitor was included as a cytostatic comparator.

[4] = system: human mammary epithelial cells (HMEC); experiment: BrdU incorporation assay in normal cells; type: cell-based; conditions: 48 hours
Description: (§1) The effect KIF18A inhibitor treatment has on proliferation of normal somatic cells (e.g., not neoplastic cells) was tested by assaying proliferation of human bone marrow mononuclear cells (HBMNCs), primary human foreskin fibroblast cells (hFSF) and human mammary epithelial cells via a 5-bromo-2′-deoxyuridine (BrdU) incorporation assay in which BrdU, an analog of the nucleoside thymidine, is used to identify proliferating cells (Payton et. al., Molecular Cancer Therapeutics, 17(12):2575-85 (2018)). Cells were analyzed on BD LSRFortessa flow cytometer using BD FACSDiva software (BD Biosciences), and post-acquisition data analysis was performed using FSC-Express software (De Novo). The percentage of BrdU positive gated events on the stacked DNA content histograms were reported.

[5] = system: human foreskin fibroblast (hFSF) cells; experiment: BrdU incorporation assay in normal cells; type: cell-based; conditions: 48 hours
Description: as §1

[6] = system: OVCAR-3 tumors; experiment: OVCAR-3 Tumor Xenograft Efficacy Study (IP); conditions: 100 mg/kg IP once daily for 18 consecutive days
Description: Mice were injected with human OVCAR-3 cells (5.0×10^6) subcutaneously in the right flank. Animals with established tumors were randomized into four groups (n=10 per group) with average tumor volume of 130 mm^3. […] Treatment started on day 24 post-tumor implantation and treatment terminal on day 42. Tumor volumes and body weights were recorded twice per week using a digital caliper and analytical lab scale, respectively. […] The percentage of tumor growth inhibition (% TGI) was calculated as % TGI relative to vehicle control: % TGI=100−[(Treated−Initial Volume)/(Control−Initial Volume)×100]. The percentage of tumor regression (% TR) was calculated as % TR compared final tumor volume to the initial tumor volume: % TR=100−[(Final Volume)/(Initial Volume)×100]. Data was graphed using GraphPad Prism 7.05. Statistical analysis was performed on treatment groups for tumor growth and blood counts using repeated measures ANOVA and one-way ANOVA, respectively, followed by Dunnett's multiple comparisons test.

SMILES: Cc1cc(NC(=O)c2ccc(NS(=O)(=O)CCO)cc2N2CCC3(CC2)CC3)nc(N2CCC(F)(F)CC2)n1 [Compound C14, N-(2-(4,4-Difluoropiperidin-1-yl)-6-methylpyrimidin-4-yl)-4-((2-hydroxyethyl)sulfonamido)-2-(6-azaspiro[2.5]octan-6-yl)benzamide]
- EC50 ([1]; read-out: EC50, increase in p-Histone H3 positive cells): 79.4 nM
- EC50 ([1]; read-out: EC50, pericentrin spotting (>2 spots per mitotic object)): 52.2 nM
- sensitivity of the cell line compared with PARP inhibitor, paclitaxel, doxorubicin, carboplatin [2]: greatest sensitivity

SMILES: CC(C)(CO)Nc1ccc(C(=O)Nc2cccc(S(=O)(=O)C3CCCC3)c2)c(N2CCC3(CC2)CC3)n1 [Compound C11, N-(3-(cyclopentylsulfonyl)phenyl)-6-((1-hydroxy-2-methylpropan-2-yl)amino)-2-(6-azaspiro[2.5]octan-6-yl)nicotinamide]
- cell growth and colony formation ([3]; 6-day treatment): significant decrease in cell growth and colony formation
- cell growth potential after drug withdrawal relative to DMSO control ([3]; re-plated in drug-free media, additional 7 to 9 days): marked reduction cell growth potential
- BrdU incorporation relative to DMSO treated cells [4]: not impacted at concentrations <10 μM
- BrdU incorporation relative to DMSO treated cells [5]: not impacted at concentrations <10 μM

SMILES: CC(C)(C)NS(=O)(=O)c1cccc(NC(=O)c2ccc(S(=O)(=O)NC(C)(C)C)cc2N2CCC3(CC2)CC3)c1 [Compound C9, 4-(N-(tert-butyl)sulfamoyl)-N-(3-(N-(tert-butyl)sulfamoyl)phenyl)-2-(6-azaspiro[2.5]octan-6-yl)benzamide]
- tumor regression [6]: 73%
